Tested on: THP-1 cells and intestinal epithelial cells (CacoGoblet)
Assay: Monocyte-epithelial cell adhesion assay (THP-1 cells on CacoGoblet)
Assay type: cell-based, human
Details: inflamed mucosa (IL1 beta 10 ng/ml overnight), 24 hours treatment
Procedure: The CacoGoblet cells were pre-treated with 10 ng/ml of IL1 beta overnight. […] A parallel treatment was carried out with the reference molecule etacortilen (Dexamethasone Sodium Phosphate) at 0.15% in order to study the overcoming of the inflammatory state of the mucosa. […] Once the non-adherent cells had been removed, the residual surface fluorescence of the THP-1 cells was evaluated under a microscope. The anti-inflammatory activity of the various compounds at the intestinal level was assessed in a static assay using the reduction in the cellular adhesion of THP-1 on CacoGoblet as an endpoint parameter. • 2) Ability of Cranberries to Prevent Adhesion of E. Coli to Mucosa The CacoGoblet cells were treated overnight with IL-1beta, the pro-inflammatory cytokine, prior to the adhesion assay in order to create inflamed mucosa. The treated monolayers were then treated with the products for 24 hours. The marked THP-1 cells were added on top of the CacoGoblet in each well. The THP-1 cells were marked with the fluorescent dye chloromethylfluorescein diacetate (CMFDA; Invitrogen). After incubation, the monolayer was gently washed to remove the non-adherent THP-1 cells. The adherent cells marked with the fluorescent dye were viewed under a fluorescence microscope. […]

With `C[C@@H]1C[C@H]2[C@@H]3CCC4=CC(=O)C=C[C@]4(C)[C@@]3(F)[C@@H](O)C[C@]2(C)[C@@]1(O)C(=O)COP(=O)(O)O` [etacortilen, Dexamethasone Sodium Phosphate] the “adhesion of THP-1 cells” value was “significant decrease in the adhesion of THP-1 cells”.

Source: US10881703B2, “Composition for use in the treatment of intestinal alterations” (priority 2016, dated 2021)
